Data set [1] in a line: Sustained release test (adriamycin liberated in phosphoric acid buffer physiological saline). In kind it is physicochemical. The settings on record: 1 mg in 0.0067 M phosphoric acid buffer physiological saline, initial pH=7.36-7.37, 37° C., HPLC. The protocol: One milligram of each of the adriamycin derivatives obtained in Examples 1, 2, 3, 4, 5 and 6 to be described later was dissolved in 0.0067 M phosphoric acid buffer physiological saline solution made by Bioproducts, Inc. (initial pH=7.36-7.37), and the solution was kept at 37° C. The amount of adriamycin liberated in the solution was analyzed by HPLC [column=YMC Pack A-312 S-5 120A ODS; mobile phase=0.05M ammonium formate buffer (pH=4.0):- acetonitrile=7:4, flow rate=1 ml/min; measuring wavelength=254 nm; retention time of adriamycin under the present conditions=3.8 minutes].
Consequently, a 50 % released time of adriamycin from the adriamycin derivatives is as follows, and sustained release was confirmed.

The next data set concerns mouse leukemia cells. Nature of the data set: Cytotoxicity test. The conditions noted are these: for Cytotoxicity, IC50: 48 hours, 37° C., RPMI1640 with 10% horse serum, trypan blue. The protocol:
5×10^4 cells/ml of mouse leukemia cells were inoculated in a RPMI1640 culture medium containing 10% horse serum, and the compound of the present invention was added to this such that the final concentration became 0.001 to 10.0 μg/ml. Cultivation was conducted in a carbon dioxide gas incubator (air containing 5% carbon dioxide gas) at 37° C. for 48 hours.

For data set [2] the following is noted: intravenous injection in mice; Collection of Medicaments in Japan, 1989; cited from earlier work.
The subject of another data set is L1210 leukemia. Nature of the data set: Test of anti-cancer activity to L1210 leukemia mice. It is filed as in vivo, CDF1 mice. The conditions noted are these: i.p., 10 days; for Survived mice/test mice: observed 60 days. How it is done:
1×10^5 L1210 leukemia cells were inoculated into CDF1 mice intraperitoneally, and 24 hours later, the aqueous solution of the compound of this invention was intraperitoneally administered successively over 10 days. Test groups, each consisting of 6 mice, were fed and observed for 60 days, and percent prolongation of life (T/C; %) was found.

A short description of another data set: Toxicity test LD50. The conditions noted are these: mice, intravenously administered once. In kind it is in vivo. From the text:
LD50 given when the adriamycin derivatives of this invention were intravenously administered once in mice is as follows.

The mark [3] stands for this setting: 9.54 mg/kg/day (2.5 as adriamycin).
Setting [4] is: 13.36 mg/kg/day (3.5 as adriamycin).
Where [5] appears, read: 19.08 mg/kg/day (5.0 as adriamycin).
The mark [6] stands for this setting: 26.72 mg/kg/day (7.0 as adriamycin).
Setting [7] is: 38.17 mg/kg/day (10.0 as adriamycin).
The mark [8] stands for this setting: 9.77 mg/kg/day (2.5 as adriamycin).
[9] abbreviates: 19.53 mg/kg/day (5.0 as adriamycin).
[10] abbreviates: 39.06 mg/kg/day (10.0 as adriamycin).
Where [11] appears, read: 78.13 mg/kg/day (20.0 as adriamycin).
[12] abbreviates: 156.25 mg/kg/day (40.0 as adriamycin).

Converted amounts (≈) assume the structure as drawn. Counter-ions that a name gives are not always drawn. Like-named read-outs stand apart in the source and are kept apart here. Some results are limits rather than exact numbers.

Turning to `COc1cccc2c1C(=O)c1c(O)c3c(c(O)c1C2=O)C[C@@](O)(C(=O)COC(=O)CCC(=O)OC[C@H]1O[C@@H]2O[C@H]4[C@H](O)[C@@H](O)[C@@H](O[C@H]5[C@H](O)[C@@H](O)[C@@H](O[C@H]6[C@H](O)[C@@H](O)[C@@H](O[C@H]7[C@H](O)[C@@H](O)[C@@H](O[C@H]8[C@H](O)[C@@H](O)[C@@H](O[C@H]9[C@H](O)[C@@H](O)[C@@H](O[C@H]%10[C@H](O)[C@@H](O)[C@@H](O[C@H]1[C@H](O)[C@H]2O)O[C@@H]%10CO)O[C@@H]9CO)O[C@@H]8CO)O[C@@H]7CO)O[C@@H]6CO)O[C@@H]5CO)O[C@@H]4CO)C[C@@H]3O[C@H]1C[C@H](N)[C@H](O)[C@H](C)O1` [Example 6-ASC, adriamycin (14-position)-succinic acid (6-position) γ-cyclodextrin conjugate], the “50 % released time of adriamycin from the adriamycin derivatives” value (“50 % released time of adriamycin” for short) in data set [1] was “about 3 hours”. Also, the “Cytotoxicity, IC50” value with mouse leukemia cells is 0.21 µg/mL.
What is called IC50 is the concentration needed to halve the response being measured. As usually defined, the LD50 is the dose at which mortality reaches 50%. Take `COc1cccc2c1C(=O)c1c(O)c3c(c(O)c1C2=O)C[C@@](O)(C(=O)CO)C[C@@H]3O[C@H]1C[C@H](N)[C@H](O)[C@H](C)O1` [Adriamycin, adriamycin]: the IC50 in the data set with mouse leukemia cells (Mus musculus, 48 h, read-out: Cytotoxicity, IC50) stood at 0.058 µg/mL (≈ 0.107 µM). Besides, the LD50 in data set [2] is reported as 9.8 mg/kg.
With “adriamycin-succinic acid-γ-cyclodextrin conjugate [ASC]”, the “Anti-cancer activity, T/C (%)” value came to 207% in the data set with L1210 leukemia (setting [3]); 545% with L1210 leukemia (setting [4]); 552% in the data set with L1210 leukemia (setting [5]); 193% in the data set with L1210 leukemia (setting [6]); 159% in the data set on L1210 leukemia (setting [7]). The Survived mice/test mice is 0/6 in the data set on L1210 leukemia (setting [3]); 3/6 in the data set with L1210 leukemia (setting [4]); 3/6 in the data set on L1210 leukemia (setting [5]); 0/6 with L1210 leukemia (setting [6]); 0/6 in the data set on L1210 leukemia (setting [7]).
Regarding `COc1cccc2c1C(=O)c1c(O)c3c(c(O)c1C2=O)C[C@@](O)(C(=O)COC(=O)C1CCCCC1C(=O)OC[C@H]1O[C@@H]2O[C@H]4[C@H](O)[C@@H](O)[C@@H](O[C@H]5[C@H](O)[C@@H](O)[C@@H](O[C@H]6[C@H](O)[C@@H](O)[C@@H](O[C@H]7[C@H](O)[C@@H](O)[C@@H](O[C@H]8[C@H](O)[C@@H](O)[C@@H](O[C@H]9[C@H](O)[C@@H](O)[C@@H](O[C@H]%10[C@H](O)[C@@H](O)[C@@H](O[C@H]1[C@H](O)[C@H]2O)O[C@@H]%10CO)O[C@@H]9CO)O[C@@H]8CO)O[C@@H]7CO)O[C@@H]6CO)O[C@@H]5CO)O[C@@H]4CO)C[C@@H]3O[C@H]1C[C@H](N)[C@H](O)[C@H](C)O1` (some centres unmarked) [Example 6-ACC, adriamycin (14-position)-ciscyclohexanedicarboxylic acid-(6-position) γ-cyclodextrin conjugate], the “50 % released time of adriamycin” value in data set [1] was over 70 h. For the same compound, the “Cytotoxicity, IC50” value in the data set on mouse leukemia cells came out at 2.07 µg/mL.
For the compound `COc1cccc2c1C(=O)c1c(O)c3c(c(O)c1C2=O)C[C@@](O)(C(=O)COC(=O)c1ccccc1C(=O)OC[C@H]1O[C@@H]2O[C@H]4[C@H](O)[C@@H](O)[C@@H](O[C@H]5[C@H](O)[C@@H](O)[C@@H](O[C@H]6[C@H](O)[C@@H](O)[C@@H](O[C@H]7[C@H](O)[C@@H](O)[C@@H](O[C@H]8[C@H](O)[C@@H](O)[C@@H](O[C@H]9[C@H](O)[C@@H](O)[C@@H](O[C@H]%10[C@H](O)[C@@H](O)[C@@H](O[C@H]1[C@H](O)[C@H]2O)O[C@@H]%10CO)O[C@@H]9CO)O[C@@H]8CO)O[C@@H]7CO)O[C@@H]6CO)O[C@@H]5CO)O[C@@H]4CO)C[C@@H]3O[C@H]1C[C@H](N)[C@H](O)[C@H](C)O1` [Example 6-APC, adriamycin (14-position)-phthalic acid-(6-position) γ-cyclodextrin conjugate], the “50 % released time of adriamycin” value in data set [1] is listed as “about 45 hours”. In the data set on mouse leukemia cells, the “Cytotoxicity, IC50” value amounted to 0.49 µg/mL.
Turning to `COc1cccc2c1C(=O)c1c(O)c3c(c(O)c1C2=O)C[C@@](O)(C(=O)CO)C[C@@H]3O[C@H]1C[C@H](N)[C@H](O)[C@H](C)O1` [Adriamycin hydrochloride, reference compound], the “Anti-cancer activity, T/C (%)” value with L1210 leukemia (0.31 mg/kg/day) worked out at 170%; in the data set on L1210 leukemia (0.63 mg/kg/day) it was 218%; in the data set with L1210 leukemia (1.25 mg/kg/day), 255%; in the data set with L1210 leukemia (2.50 mg/kg/day) it was 177%; in the data set on L1210 leukemia (5.00 mg/kg/day) it was 132%. Moreover, the Survived mice/test mice in the data set with L1210 leukemia (0.31 mg/kg/day), in the data set with L1210 leukemia (0.63 mg/kg/day), with L1210 leukemia (1.25 mg/kg/day), with L1210 leukemia (2.50 mg/kg/day) and with L1210 leukemia (5.00 mg/kg/day) was 0/6 each time.
Take `COc1cccc2c1C(=O)c1c(O)c3c(c(O)c1C2=O)C[C@@](O)(C(=O)COC(=O)c1cc2ccccc2cc1C(=O)OC[C@H]1O[C@@H]2O[C@H]4[C@H](O)[C@@H](O)[C@@H](O[C@H]5[C@H](O)[C@@H](O)[C@@H](O[C@H]6[C@H](O)[C@@H](O)[C@@H](O[C@H]7[C@H](O)[C@@H](O)[C@@H](O[C@H]8[C@H](O)[C@@H](O)[C@@H](O[C@H]9[C@H](O)[C@@H](O)[C@@H](O[C@H]%10[C@H](O)[C@@H](O)[C@@H](O[C@H]1[C@H](O)[C@H]2O)O[C@@H]%10CO)O[C@@H]9CO)O[C@@H]8CO)O[C@@H]7CO)O[C@@H]6CO)O[C@@H]5CO)O[C@@H]4CO)C[C@@H]3O[C@H]1C[C@H](N)[C@H](O)[C@H](C)O1` [Example 6-ANC, adriamycin (14-position)-naphthalenedicarboxylic acid-(6-position) γ-cyclodextrin conjugate]: the “50 % released time of adriamycin” value in data set [1] was “about 65 hours”. Besides, in the data set on mouse leukemia cells, the “Cytotoxicity, IC50” value was 0.79 µg/mL.
Regarding “adriamycin-phthalic acid-γ-cyclodextrin conjugate [APC]”, the “Anti-cancer activity, T/C (%)” value in the data set on L1210 leukemia (setting [8]) amounted to 164%; with L1210 leukemia (setting [9]), 234%; in the data set on L1210 leukemia (setting [10]), 468%; in the data set with L1210 leukemia (setting [11]) it was 475%; in the data set with L1210 leukemia (setting [12]), 143%. In addition, the Survived mice/test mice with L1210 leukemia (setting [8]) is given as 0/6; in the data set on L1210 leukemia (setting [9]), 0/6; with L1210 leukemia (setting [10]), 2/6; in the data set with L1210 leukemia (setting [11]), 0/6; in the data set with L1210 leukemia (setting [12]), 0/6. In addition, the “50 % released time of adriamycin” value in data set [1] is “about 20 hours”. Moreover, the “Cytotoxicity, IC50” value in the data set on mouse leukemia cells is 0.32 µg/mL. For the same compound, in “Toxicity test LD50” (as derivative), the LD50 is given as 555 mg/kg. In addition, the LD50 as adriamycin in the data set “Toxicity test LD50” (calculated as adriamycin) is 147 mg/kg as adriamycin.

Values taken from patent US5183883A, “Conjugate of adriamycin and cyclodextrin” (Mercian Corporation, priority 1990, dated 1993).
